Laboratory results: publication PMC10458253, “Unraveling the In Vitro Toxicity Profile of Psychedelic 2C Phenethylamines and Their N-Benzylphenethylamine (NBOMe) Analogues” (Pharmaceuticals, 2023)

Tests used:
Format in all cases: cell-based
[1] = test system: differentiated SH-SY5Y cells; experiment: Intracellular ATP (luciferin-luciferase bioluminescence assay); conditions: 24 h, 500 μM
Protocol: Intracellular ATP levels were determined, as previously described, through a bioluminescence reaction with luciferase, which catalyzes the formation of light from ATP and luciferin.
Intracellular adenosine triphosphate (ATP) was quantified through the bioluminescent D-luciferin-luciferase assay. The samples used for the intracellular ATP quantification were prepared as described for the “Intracellular Total Glutathione Quantification” assay. The acidic samples and standards (ATP standards prepared in 5% HClO4) were neutralized with ice-cold 0.76 M KHCO3 (1:1) and centrifuged (13,000× g, 10 min at 4 °C). Afterwards, 75 µL of the supernatants were transferred to a white opaque 96-well plate, followed by the addition of 75 µL of luciferin-luciferase solution (0.15 mM luciferin and 3 × 10^6 light unit’s luciferase/mL prepared in a 7.6 pH Tris-Glycine buffer solution: 1 mM Trizma; 10 mM MgSO4; 50 mM glycine; 0.55 mM EDTA and 1% BSA), protected from light. The samples’ bioluminescence (560 nm) was immediately measured in a multi-well plate reader (PowerWaveX BioTek Instruments, Winooski, VT, USA). The ATP content in the samples was normalized to the protein content (as previously described in “Intracellular Reduced Glutathione Quantification”) and the results were expressed as a percentage of control cells. At least four independent experiments were performed, in duplicate.

[2] = test system: differentiated SH-SY5Y cells; experiment: Intracellular total glutathione (DTNB-GSH recycling assay); conditions: 24 h
Protocol: Total GSH was quantified through the DTNB-GSH recycling assay. Briefly, GSH is oxidized by 5,5′-dithiobis (2-nitrobenzoic acid) (DTNB) producing 5-thio-2-nitrobenzoic acid (TNB) and a glutathione adduct of GSH (GS-TNB). In the presence of NADPH, GS-TNB is reduced by glutathione reductase to 2GSH (recycled). The GSH concentration in the samples is thus proportional to TNB formation, which is measurable at 415 nm.
Intracellular total glutathione (GSH) was measured through the DTNB-GSH recycling assay. […]
The acidic samples and standards (GSH standards prepared in 5% HClO4) were neutralized with ice-cold 0.76 M KHCO3 (1:1) and centrifuged (13,000× g, 10 min at 4 °C). Subsequently, 100 µL of the supernatants were transferred to a 96-well plate, followed by the addition of 65 µL of an extemporaneous reagent solution (3.96 mM DTNB and 0.68 mM NADPH prepared in a 7.5 pH phosphate buffer: 71.5 mM Na2HPO4, 71.5 mM NaH2PO4, and 0.63 mM EDTA) and the plates were incubated for 15 min in a multi-well plate reader (PowerWaveX BioTek Instruments, Winooski, VT, USA) at 30 °C. At the end of the incubation period, 40 µL of a 10 U/mL glutathione reductase (prepared in phosphate buffer) solution was added and the absorbance was then measured, for 3 min, at 415 nm, in kinetic mode to follow the TNB formation. […]

[3] = test system: differentiated SH-SY5Y cells; experiment: Mitochondrial membrane potential (JC-1 dye); conditions: 24 h, 0–500 µM, vs control
Protocol: Mitochondrial transmembrane potential (Δѱm) was determined using the JC-1 dye, which can selectively enter the mitochondria and reversibly change the dye’s fluorescent properties depending on the Δѱm. At high Δѱm conditions—representative of healthy cells—JC-1 forms J-aggregates generating red fluorescence. At low Δѱm conditions—representative of unhealthy or apoptotic cells—JC-1 is predominantly a monomer generating green fluorescence.
The mitochondrial membrane potential was evaluated by using the JC-1 probe. SH-SY5Y cells were seeded and differentiated in 48-well plates and, 6 days after seeding, the cells were exposed to the six drugs (0–500 µM) for 24 h, at 37 °C, in a 5% CO2–95% air atmosphere. Subsequently, the medium was removed, and the cells were incubated with 20 µM JC-1 for 30 min, protected from light, at 37 °C, in a 5% CO2–95% air atmosphere. At the end of the incubation period, the cells were centrifuged (300× g, 5 min at room temperature) and washed (warm HBSS with calcium and magnesium) twice. The fluorescence was then measured in a multi-well plate reader: at 535 nm excitation and 595 nm emission wavelengths for J-aggregates; and at 485 nm excitation and 535 nm emission wavelengths for JC-1 monomers (PowerWaveX BioTek Instruments, USA). […] The results were calculated as red/green fluorescence intensity ratios and expressed as percentages of control cells. […]

Row | Structure (SMILES) | ATP intracellular levels [1] | total GSH intracellular levels ([2]; 10 μM) | JC-1 red/green ratio (mitochondrial membrane potential) [3] | total GSH intracellular levels ([2]; 250 μM)
1 | COc1cc([N+](=O)[O-])c(OC)cc1CCN [2C-N, 2,5-dimethoxy-4-nitrophenethylamine] | about 60 % of control cells | – | – | –
2 | COc1cc(CCNCc2ccccc2OC)c(OC)cc1Br [25B-NBOMe, 4-Bromo-2,5-dimethoxy-N-(2-methoxybenzyl)-β-phenethylamine] | completely depleted intracellular ATP levels | drastically reduced the total GSH levels | the most operative drug in inducing mitochondrial membrane depolarization | –
3 | COc1cc(CCN)c(OC)cc1Br [2C-B, 4-Bromo-2,5-dimethoxy-β-phenethylamine] | – | – | – | no significant alterations
